Reference: the NIST ThermoML archive (doi:10.1016/j.jct.2007.08.002)
Where “and” joins values, the source holds several entries; their conditions need not be identical. Equal entries are not always repeated.

Assay: molar heat capacity at saturation pressure

NC12CC3CC(CC(C3)C1)C2 [tricyclo(3.3.1.1:3,7)decan-1-amine]
Conditions	molar heat capacity
196.06 K, Crystal 3, Small (less than 1 g) adiabatic calorimetry	135.44 J/K/mol
197.25 K, Crystal 3, Small (less than 1 g) adiabatic calorimetry	136.86 J/K/mol
197.97 K, Crystal 3, Small (less than 1 g) adiabatic calorimetry	137.6 J/K/mol
199.25 K, Crystal 3, Small (less than 1 g) adiabatic calorimetry	139.1 J/K/mol
199.88 K, Crystal 3, Small (less than 1 g) adiabatic calorimetry	139.77 J/K/mol
200.91 K, Crystal 3, Small (less than 1 g) adiabatic calorimetry	140.93 J/K/mol
201.79 K, Crystal 3, Small (less than 1 g) adiabatic calorimetry	142.09 J/K/mol
202.24 K, Crystal 3, Small (less than 1 g) adiabatic calorimetry	142.51 J/K/mol
203.56 K, Crystal 3, Small (less than 1 g) adiabatic calorimetry	144.09 J/K/mol
204.88 K, Crystal 3, Small (less than 1 g) adiabatic calorimetry	145.75 J/K/mol
206.19 K, Crystal 3, Small (less than 1 g) adiabatic calorimetry	147.58 J/K/mol
207.51 K, Crystal 3, Small (less than 1 g) adiabatic calorimetry	149.24 J/K/mol
207.53 K, Crystal 3, Small (less than 1 g) adiabatic calorimetry	149.33 J/K/mol
208.81 K, Crystal 3, Small (less than 1 g) adiabatic calorimetry	151.16 J/K/mol
209.45 K, Crystal 3, Small (less than 1 g) adiabatic calorimetry	152.07 J/K/mol
210.11 K, Crystal 3, Small (less than 1 g) adiabatic calorimetry	152.9 J/K/mol
211.36 K, Crystal 3, Small (less than 1 g) adiabatic calorimetry	154.9 J/K/mol
211.41 K, Crystal 3, Small (less than 1 g) adiabatic calorimetry	154.9 J/K/mol
212.7 K, Crystal 3, Small (less than 1 g) adiabatic calorimetry	156.73 J/K/mol
213.28 K, Crystal 3, Small (less than 1 g) adiabatic calorimetry	157.97 J/K/mol
213.99 K, Crystal 3, Small (less than 1 g) adiabatic calorimetry	158.89 J/K/mol
215.2 K, Crystal 3, Small (less than 1 g) adiabatic calorimetry	161.05 J/K/mol
215.27 K, Crystal 3, Small (less than 1 g) adiabatic calorimetry	161.05 J/K/mol
216.55 K, Crystal 3, Small (less than 1 g) adiabatic calorimetry	163.3 J/K/mol
217.12 K, Crystal 3, Small (less than 1 g) adiabatic calorimetry	164.54 J/K/mol
217.82 K, Crystal 3, Small (less than 1 g) adiabatic calorimetry	165.71 J/K/mol
219.04 K, Crystal 3, Small (less than 1 g) adiabatic calorimetry	168.28 J/K/mol
219.1 K, Crystal 3, Small (less than 1 g) adiabatic calorimetry	168.28 J/K/mol
220.36 K, Crystal 3, Small (less than 1 g) adiabatic calorimetry	170.95 J/K/mol
220.96 K, Crystal 3, Small (less than 1 g) adiabatic calorimetry	172.36 J/K/mol
221.61 K, Crystal 3, Small (less than 1 g) adiabatic calorimetry	173.61 J/K/mol
222.86 K, Crystal 3, Small (less than 1 g) adiabatic calorimetry	176.6 J/K/mol
222.88 K, Crystal 3, Small (less than 1 g) adiabatic calorimetry	176.77 J/K/mol
224.1 K, Crystal 3, Small (less than 1 g) adiabatic calorimetry	179.84 J/K/mol
224.8 K, Crystal 3, Small (less than 1 g) adiabatic calorimetry	181.75 J/K/mol
225.33 K, Crystal 3, Small (less than 1 g) adiabatic calorimetry	183.17 J/K/mol
226.55 K, Crystal 3, Small (less than 1 g) adiabatic calorimetry	186.91 J/K/mol
226.72 K, Crystal 3, Small (less than 1 g) adiabatic calorimetry	187.57 J/K/mol
227.76 K, Crystal 3, Small (less than 1 g) adiabatic calorimetry	190.82 J/K/mol
228.63 K, Crystal 3, Small (less than 1 g) adiabatic calorimetry	194.14 J/K/mol
228.97 K, Crystal 3, Small (less than 1 g) adiabatic calorimetry	195.22 J/K/mol
230.16 K, Crystal 3, Small (less than 1 g) adiabatic calorimetry	200.21 J/K/mol
230.54 K, Crystal 3, Small (less than 1 g) adiabatic calorimetry	202.12 J/K/mol
231.34 K, Crystal 3, Small (less than 1 g) adiabatic calorimetry	205.78 J/K/mol
232.45 K, Crystal 3, Small (less than 1 g) adiabatic calorimetry	211.52 J/K/mol
232.51 K, Crystal 3, Small (less than 1 g) adiabatic calorimetry	211.69 J/K/mol
233.67 K, Crystal 3, Small (less than 1 g) adiabatic calorimetry	218.01 J/K/mol
234.36 K, Crystal 3, Small (less than 1 g) adiabatic calorimetry	222.33 J/K/mol
234.81 K, Crystal 3, Small (less than 1 g) adiabatic calorimetry	225.16 J/K/mol
235.93 K, Crystal 3, Small (less than 1 g) adiabatic calorimetry	233.22 J/K/mol
236.25 K, Crystal 3, Small (less than 1 g) adiabatic calorimetry	235.72 J/K/mol
237.04 K, Crystal 3, Small (less than 1 g) adiabatic calorimetry	242.28 J/K/mol
238.14 K, Crystal 3, Small (less than 1 g) adiabatic calorimetry	251.85 J/K/mol and 251.6 J/K/mol
239.22 K, Crystal 3, Small (less than 1 g) adiabatic calorimetry	261.49 J/K/mol
240.04 K, Crystal 3, Small (less than 1 g) adiabatic calorimetry	267.14 J/K/mol
240.28 K, Crystal 3, Small (less than 1 g) adiabatic calorimetry	268.64 J/K/mol
241.32 K, Crystal 3, Small (less than 1 g) adiabatic calorimetry	272.38 J/K/mol
241.94 K, Crystal 2	272.22 J/K/mol
242.37 K, Crystal 2	270.55 J/K/mol
243.42 K, Crystal 2	261.16 J/K/mol
243.89 K, Crystal 2	258.16 J/K/mol
244.49 K, Crystal 2	249.93 J/K/mol
245.89 K, Crystal 2	240.12 J/K/mol
247.88 K, Crystal 2	229.23 J/K/mol
249.84 K, Crystal 2	225.07 J/K/mol
251.78 K, Crystal 2	223.16 J/K/mol
253.73 K, Crystal 2	223.33 J/K/mol
255.66 K, Crystal 2	225.49 J/K/mol
257.59 K, Crystal 2	226.9 J/K/mol
259.52 K, Crystal 2	229.98 J/K/mol
261.45 K, Crystal 2	233.3 J/K/mol
263.38 K, Crystal 2	237.13 J/K/mol
265.31 K, Crystal 2	241.62 J/K/mol
267.23 K, Crystal 2	247.19 J/K/mol
